Experiment [1] concerns the target Matrix metalloproteinase-9 (Homo sapiens) (UniProt P14780). The settings on record: at 1 mM.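 Further: recombinant human MMP9, activity read after 30 min.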
For experiment [2], the target named is T1, Polyunsaturated fatty acid 5-lipoxygenase (Homo sapiens) (UniProt P09917).
T1 sequence (whole entry): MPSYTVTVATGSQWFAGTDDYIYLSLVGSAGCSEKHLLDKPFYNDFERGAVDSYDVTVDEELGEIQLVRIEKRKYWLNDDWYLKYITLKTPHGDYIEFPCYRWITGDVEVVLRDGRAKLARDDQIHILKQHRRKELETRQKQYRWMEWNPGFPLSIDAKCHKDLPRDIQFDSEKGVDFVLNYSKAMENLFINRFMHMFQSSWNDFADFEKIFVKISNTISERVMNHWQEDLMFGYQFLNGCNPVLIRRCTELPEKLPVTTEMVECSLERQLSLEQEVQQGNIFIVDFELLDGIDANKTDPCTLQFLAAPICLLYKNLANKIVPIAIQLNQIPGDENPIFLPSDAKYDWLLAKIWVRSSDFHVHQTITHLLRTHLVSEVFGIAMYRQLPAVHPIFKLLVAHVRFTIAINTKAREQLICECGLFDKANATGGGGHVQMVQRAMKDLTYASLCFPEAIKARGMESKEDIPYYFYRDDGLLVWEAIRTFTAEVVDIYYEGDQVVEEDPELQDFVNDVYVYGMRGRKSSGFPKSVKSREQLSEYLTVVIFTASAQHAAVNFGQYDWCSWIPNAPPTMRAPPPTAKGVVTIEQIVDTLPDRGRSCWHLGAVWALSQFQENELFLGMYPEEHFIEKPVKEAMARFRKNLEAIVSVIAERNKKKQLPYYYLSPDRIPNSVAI
Kind of experiment: Inhibition of human recombinant 5-lipoxygenase at 1 mM after 10 mins by fluorescence assay.

In experiment [3] the target is 72 kDa type IV collagenase (Homo sapiens, UniProt P08253). Particulars: at 1 mM.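 Further: recombinant human enzyme, inhibition read after a 30 min incubation.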
Experiment [4] concerns the target T2, Tyrosinase (Agaricus bisporus) (UniProt O42713).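 Further: inhibition measured at 10 min.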
T2 sequence (whole entry): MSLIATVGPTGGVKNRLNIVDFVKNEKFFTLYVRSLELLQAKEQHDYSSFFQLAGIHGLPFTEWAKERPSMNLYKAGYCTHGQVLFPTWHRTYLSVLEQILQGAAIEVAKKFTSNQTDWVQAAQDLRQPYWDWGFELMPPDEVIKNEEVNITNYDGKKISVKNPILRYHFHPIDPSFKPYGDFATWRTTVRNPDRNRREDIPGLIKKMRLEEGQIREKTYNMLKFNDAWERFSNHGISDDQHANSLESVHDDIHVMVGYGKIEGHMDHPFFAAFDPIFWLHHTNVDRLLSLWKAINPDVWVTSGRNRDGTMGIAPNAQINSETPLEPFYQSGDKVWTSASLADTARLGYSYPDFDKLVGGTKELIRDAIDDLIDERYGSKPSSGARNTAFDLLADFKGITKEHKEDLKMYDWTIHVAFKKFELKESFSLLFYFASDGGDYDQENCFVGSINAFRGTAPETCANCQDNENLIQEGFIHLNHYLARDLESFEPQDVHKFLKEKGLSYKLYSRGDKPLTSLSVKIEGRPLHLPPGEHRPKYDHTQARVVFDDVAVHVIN
The settings on record: at 1 mM.

The target in experiment [5] is T3, Lethal factor (Bacillus anthracis) (UniProt P15917).
T3 sequence (whole entry): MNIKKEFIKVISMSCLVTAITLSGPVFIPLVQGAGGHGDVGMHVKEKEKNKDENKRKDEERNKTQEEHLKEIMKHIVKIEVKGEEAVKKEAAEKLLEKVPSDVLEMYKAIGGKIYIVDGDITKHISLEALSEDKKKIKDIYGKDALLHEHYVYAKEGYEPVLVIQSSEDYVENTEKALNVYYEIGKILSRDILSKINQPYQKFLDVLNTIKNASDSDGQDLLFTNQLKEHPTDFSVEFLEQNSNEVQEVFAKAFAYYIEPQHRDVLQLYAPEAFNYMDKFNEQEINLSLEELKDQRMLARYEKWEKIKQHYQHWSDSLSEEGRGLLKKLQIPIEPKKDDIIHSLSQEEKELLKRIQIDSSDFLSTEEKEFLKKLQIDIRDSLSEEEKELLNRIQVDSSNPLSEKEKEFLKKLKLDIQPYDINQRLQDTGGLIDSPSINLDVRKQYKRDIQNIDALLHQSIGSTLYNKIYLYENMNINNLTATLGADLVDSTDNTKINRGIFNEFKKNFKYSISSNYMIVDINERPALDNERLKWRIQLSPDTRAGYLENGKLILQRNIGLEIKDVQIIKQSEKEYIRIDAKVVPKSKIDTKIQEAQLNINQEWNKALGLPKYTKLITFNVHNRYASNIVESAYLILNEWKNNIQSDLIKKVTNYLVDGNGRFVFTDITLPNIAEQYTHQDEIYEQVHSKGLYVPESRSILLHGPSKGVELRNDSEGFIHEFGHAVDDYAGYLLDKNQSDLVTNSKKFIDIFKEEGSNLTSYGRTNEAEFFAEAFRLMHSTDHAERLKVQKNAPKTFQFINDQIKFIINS
Particulars: at 1 mM.

The structures appear in SMILES notation.

Matrix metalloproteinase-9 (Homo sapiens), sequence (P14780 whole entry): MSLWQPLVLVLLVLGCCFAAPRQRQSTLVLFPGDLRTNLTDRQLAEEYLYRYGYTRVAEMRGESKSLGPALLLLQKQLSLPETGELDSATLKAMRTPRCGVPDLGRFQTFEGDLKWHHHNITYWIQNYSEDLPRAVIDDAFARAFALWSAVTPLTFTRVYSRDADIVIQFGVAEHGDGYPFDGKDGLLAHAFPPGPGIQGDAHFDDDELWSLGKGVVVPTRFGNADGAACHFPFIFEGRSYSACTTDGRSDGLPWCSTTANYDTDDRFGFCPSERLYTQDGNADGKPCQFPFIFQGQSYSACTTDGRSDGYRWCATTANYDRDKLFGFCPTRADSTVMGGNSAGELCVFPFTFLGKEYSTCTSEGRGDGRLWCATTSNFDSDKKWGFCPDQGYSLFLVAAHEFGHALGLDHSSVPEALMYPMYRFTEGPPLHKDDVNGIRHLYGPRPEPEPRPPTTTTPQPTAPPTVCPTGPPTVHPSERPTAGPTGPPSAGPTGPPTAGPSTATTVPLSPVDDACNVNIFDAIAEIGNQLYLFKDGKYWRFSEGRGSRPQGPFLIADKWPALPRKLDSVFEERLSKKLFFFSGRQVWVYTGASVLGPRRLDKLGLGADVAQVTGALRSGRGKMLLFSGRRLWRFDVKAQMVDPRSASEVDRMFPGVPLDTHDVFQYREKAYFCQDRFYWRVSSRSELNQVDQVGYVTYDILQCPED
72 kDa type IV collagenase, sequence (P08253 110-660 limits assumed): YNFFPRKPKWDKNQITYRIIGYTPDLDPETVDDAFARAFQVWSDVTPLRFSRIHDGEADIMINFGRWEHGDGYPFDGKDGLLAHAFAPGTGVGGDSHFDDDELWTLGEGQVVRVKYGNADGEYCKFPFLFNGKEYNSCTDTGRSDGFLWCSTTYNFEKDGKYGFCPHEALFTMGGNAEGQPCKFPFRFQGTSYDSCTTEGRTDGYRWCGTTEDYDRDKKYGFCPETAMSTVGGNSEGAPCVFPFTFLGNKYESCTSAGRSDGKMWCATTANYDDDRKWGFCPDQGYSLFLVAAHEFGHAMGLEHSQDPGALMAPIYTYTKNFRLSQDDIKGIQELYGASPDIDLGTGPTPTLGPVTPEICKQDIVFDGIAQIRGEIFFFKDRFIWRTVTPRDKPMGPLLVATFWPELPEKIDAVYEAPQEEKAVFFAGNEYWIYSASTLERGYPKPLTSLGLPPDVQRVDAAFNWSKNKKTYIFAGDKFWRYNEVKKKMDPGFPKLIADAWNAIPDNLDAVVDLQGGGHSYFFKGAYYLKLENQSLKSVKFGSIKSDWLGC

Regarding `O=c1cccccc1O` [TROPOLONE], the inhibition (as a rule, the change of the read-out against control, counted positive when it falls) in experiment [1] was 91%; in experiment [2] it was -3%; in experiment [3], 89%; in experiment [4], 90%; in experiment [5], 55%.
Regarding `c1ccc(CNCc2ccccn2)nc1`, the inhibition in experiment [1] was determined as 84%; in experiment [2] it was 29%; in experiment [3] it was 100%; in experiment [4], 69%; in experiment [5], 41%.
For `O=C(O)c1ccc(C(=O)O)nc1` the same measures were -2%, 31%, -5%, 98% and 18%.
In the case of `Cc1ccc(O)c(C(=O)O)c1`, the inhibition is 2% in experiment [1]; 17% in experiment [2]; 65% in experiment [3]; 98% in experiment [4]; 56% in experiment [5].
With `CCn1ccc(=O)c(O)c1C`, the inhibition in experiment [1] came out at 10%; in experiment [2], 80%; in experiment [3], 16%; in experiment [4] it was 9%; in experiment [5] it was 10%.
On to `Cn1cccc(O)c1=O`, for which the inhibition was 8% in experiment [1]; 88% in experiment [2]; 4% in experiment [3]; -6% in experiment [4]; 1% in experiment [5].
Regarding `O=C(O)c1ccc(F)cc1O`, the inhibition in experiment [1] is 5%; in experiment [2] it was 31%; in experiment [3], -8%; in experiment [4], 97%; in experiment [5] it was 17%.
For the compound `C1CNCCNCCN1`, the inhibition in experiment [1] was determined as 100%; in experiment [2], 25%; in experiment [3] it was 100%; in experiment [4], 68%; in experiment [5] it was 59%.
For the compound `Cc1ccc(S(N)(=O)=O)cc1`, the inhibition is -7% in experiment [1]; 25% in experiment [2]; -2% in experiment [3]; 70% in experiment [4]; 6% in experiment [5].
Turning to `O=C(O)c1ccccc1O`, the inhibition in experiment [1] is 12%; in experiment [2], 20%; in experiment [3], 12%; in experiment [4] it was 97%; in experiment [5], 6%.
For `Cc1nc(O)nc(O)c1C`, the inhibition in experiment [1] was -4%; in experiment [2] it was 33%; in experiment [3] it was 5%; in experiment [4], 32%; in experiment [5], 28%.
For `Cc1cccc(C(=O)O)c1O` the same measures were 14%, 22%, 1%, 96% and 8%.
As to `O=C(O)c1nccc2ccccc12`, the inhibition in experiment [1] amounted to 26%; in experiment [2], 18%; in experiment [3] it was 42%; in experiment [4] it was 72%; in experiment [5], 31%.
For `O=c1cc(CCl)occ1O` the same measures were 42%, 87%, 65%, 94% and 30%.
As for `O=C(O)c1cc(F)ccc1O`, the inhibition is 21% in experiment [1]; 49% in experiment [2]; -2% in experiment [3]; 98% in experiment [4]; 16% in experiment [5].
For the compound `Cc1cc(O)nc(O)n1`, the inhibition was 1% in experiment [1]; 24% in experiment [2]; -7% in experiment [3]; -4% in experiment [4]; 8% in experiment [5].
Turning to `O=C(O)c1cccc(O)c1O`, the inhibition was 11% in experiment [1]; 80% in experiment [2]; -1% in experiment [3]; 88% in experiment [4]; 9% in experiment [5].
In the case of `Cc1cc(=O)c(O)co1`, the inhibition in experiment [1] came to 31%; in experiment [2] it was 80%; in experiment [3], 37%; in experiment [4], 86%; in experiment [5], 22%.
Consider `Nc1ccc(C(=O)O)c(O)c1`, for which the inhibition in experiment [1] is 24%; in experiment [2] it was 60%; in experiment [3], -1%; in experiment [4] it was 55%; in experiment [5], 30%.
In the case of `O=c1occcc1O`, the inhibition in experiment [1] was found to be 70%; in experiment [2], 77%; in experiment [3] it was 66%; in experiment [4] it was 77%; in experiment [5], 21%.
`Cc1occ(O)c(=O)c1C(=O)O`: the inhibition in experiment [1] was 51%; in experiment [2], 80%; in experiment [3], 56%; in experiment [4], 96%; in experiment [5] it was 45%.
Consider `[O-][n+]1cccc2cccc(O)c21`, for which the inhibition in experiment [1] worked out at 67%; in experiment [2] it was 66%; in experiment [3], 62%; in experiment [4] it was 29%; in experiment [5] it was 59%.
Consider `Nc1[nH]cnc2ncnc1-2`, for which the inhibition in experiment [1] was -3%; in experiment [2], 9%; in experiment [3], -1%; in experiment [4], 11%; in experiment [5], 16%.
For `Oc1ncccn1` the same measures were 51%, 8%, 24%, 92% and 28%.
With `Cc1cc(=O)c(O)c(CCl)o1`, the inhibition amounted to 41% in experiment [1]; 72% in experiment [2]; 44% in experiment [3]; 96% in experiment [4]; 21% in experiment [5].
For `O=C(O)c1cccc(Br)n1` the same measures were 4%, 29%, -4%, 90% and 75%.
With `CCCCc1ccc(C(=O)O)nc1`, the inhibition came out at 18% in experiment [1]; 23% in experiment [2]; 43% in experiment [3]; 75% in experiment [4]; 29% in experiment [5].
For `CC(=O)C(C)C(C)=O`, the inhibition in experiment [1] was -4%; in experiment [2] it was 64%; in experiment [3] it was -3%; in experiment [4] it was 67%; in experiment [5], -7%.
As to `CC(=O)C1CCCC1=O` (stereo not given), the inhibition in experiment [1] came to 25%; in experiment [2], 79%; in experiment [3] it was 20%; in experiment [4], 83%; in experiment [5] it was 6%.
For `Nc1cc(=O)nc(N)[nH]1` the same measures were 2%, 65%, 6%, 18% and 34%.

The values above are taken from ChEMBL document CHEMBL1649420, “Identifying chelators for metalloprotein inhibitors using a fragment-based approach” (J Med Chem, 2011).
